Experimental findings from patent publication US10202349B2, “Asymmetric bis-acridines with antitumour activity and their uses” (POLITECHNIKA GDAŃSKA, priority 2015, dated 2019) are described below.

One assay relates to DU-145. Kind of assay: Cytotoxic activity in vitro, SRB. The class given is cell-based, human. How it is done: (§1) Cytotoxic activity tests in-vitro. A measure of the cytotoxic activity of bis-acridines are the EC50 (concentration of studied compounds at which 50% inhibition of proliferation of tumorous is observed) of the evaluated compounds that inhibit the growth of 50% of cells in relation to a control. The cytotoxic activity of the compounds was determined using SRB, recommended by the US National Cancer Institute (USA). As the spectrum of 13 human origin neoplasms in bis-acridine screening studies, we used the following: HT 29 [CRC], HCT 116 [CRC], H 460 [lung cancer], MDA MB 231 [breast cancer], MCF-7 [breast cancer], UM UC3 [bladder cancer], PC 3 [prostate cancer], DU 145 [ prostate cancer], Panc-1 [pancreatic cancer], Mia Pa Ca 2 [pancreatic cancer], BXPC 3 [pancreatic cancer], AsPC1 [pancreatic cancer], Capan-2 [pancreatic cancer]. […] The DU-145 results were substantially a basis for selecting compounds and neoplasms for screening. The next neoplasms most sensitive to the cytotoxic activity of bis-acridines was the CRC HCT-116, as well as breast cancer MBA-MB-231. […] The cytotoxic activity of the remaining bis-acridines is significant or high (EC50 in the range from 1 to 0.04 μM). […] Panc-1, MiaPaCa-2 and Capan-2 are more sensitive, whereas for AsPC-1 and BxPC-3 this activity is at least an order of magnitude smaller.

A further assay deals with H-460. The experiment in a line: Cytotoxic activity in vitro, SRB. The format is cell-based, human. How it is done: as §1
Another assay deals with HCT-116. Kind of assay: Cytotoxic activity in vitro, SRB. The class given is cell-based, human. How it is done:
as §1

The subject of the next assay is HT-29. The experiment in a line: Cytotoxic activity in vitro, SRB. The class given is cell-based, human. How it is done: as §1
A further assay relates to MDA-MB-231. The experiment in a line: Cytotoxic activity in vitro, SRB. The format is cell-based, human. How it is done:
as §1

The subject of the next assay is MiaPaCa-2. Kind of assay: Cytotoxic activity in vitro, SRB. The format is cell-based, human. How it is done: as §1
Another assay has as its system DU 145. Kind of assay: Anti-neoplasmic activity against xenograft in hairless mice. The format is in vivo. Conditions: series 2, i.p., single 8 mg/kg, total 48 mg/kg, day 35. How it is done: (§2) For this, we selected 26 bis-acridines, mainly on the basis of the cytotoxic activity. We performed 34 series of experiments evaluating the anti-neoplasmic activity on xenografts in hairless mice against eleven neoplasms of human origin from the determination of the cytotoxic activity of bis-acridines (table 4). The tumours were injected subcutaneously to hairless mice of 5-weeks, female Crl:Nu-Foxnlnu, at a rate of 5×10^6 cells per mouse. After attaining a tumour of about 100 mm^3 or 200 mm^3 in depending on the neoplasm and its take this was 8 or even 30 days, and began therapy. On the day therapy was initiated, we randomised the animals and divided them into groups. Test groups were from 6 to 8 animals, and controls had from 8 to 14 animals. Each compound was tested at three differentiated doses.
(§3) The preparations were administered intravenously (i.v.) twice weekly for 4 weeks (thrice weekly for rapidly growing neoplasms). In several series, we used intraperitoneally (i.p.) administration in the same scheme. […] The therapeutic efficacy of the tested formulations was evaluated by measuring tumour size (length and width measurements of the tumour on the basis of the calculated tumour volume). Tumours were measured twice weekly for a period of about 30 days for fast-growing neoplasms, as well as about 60 days for the slow-growing neoplasms. The tumour volume in the treated groups compared with the control group. On this basis, inhibition of tumour growth was calculated using the following formula: Tumour growth inhibition TGI [%]=100−(ΔVT/ΔVC×100) Where ΔVT—is mean the tumour volume in animals in the group treated at the given day of treatment, minus the mean tumour volume in animals at the date of commencement of therapy. ΔVC is mean tumour volume in animals in the control group on a given day of treatment minus the average tumour volume of animals on the date of commencement of therapy. The results of the tests of anti-neoplasmic activity conducted in xenografts of human-origin neoplasms in mice are shown in Table 5.
(§4) The result above was accepted only in the case that the dose administered in all animals or more than half of the animals that survived to the end of the experiment. In addition, the evaluation was the day that the administration of the preparation was already completed: for the fast-growing neoplasms (eg. HCT116) this was in the days from 15 to 26, while for slow-growing neoplasms (eg. Panc 1) on a day from 34 to 60. […] In addition, the maximum inhibition of neoplasms could be identified in the day, in which there were no factors that could change the value TGI value.
(§5) Such factors may include: a significant decrease in body weight, the appearance of observable toxaemia, excessive rate of tumour growth: tumours in excess of 2000 mm^3 and all animals alive on that day.

For a further assay, the system named is H 460. Described as above. The class given is in vivo. How it is done:
as §2, §3, §4, §5

For the next assay, the system named is PANC 1. Described as above. The class given is in vivo. How it is done: as §2, §3, §4, §5
The next assay relates to AsPC-1. Kind of assay: Cytotoxic activity in vitro, SRB. The class given is cell-based, human. How it is done:
as §1

Another assay has as its system MCF-7. Kind of assay: Cytotoxic activity in vitro, SRB. The class given is cell-based, human. How it is done: as §1
Another assay relates to PANC-1. The experiment in a line: Cytotoxic activity in vitro, SRB. The format is cell-based, human. How it is done: as §1
Another assay has as its system PC-3. The experiment in a line: Cytotoxic activity in vitro, SRB. The format is cell-based, human. How it is done: as §1
Another assay deals with UM-UC-3. The experiment in a line: Cytotoxic activity in vitro, SRB. The class given is cell-based, human. How it is done: as §1
In another assay the test system is HCT 116. Kind of assay: Anti-neoplasmic activity against xenograft in hairless mice. The format is in vivo. Conditions: series 8, i.p., day 23. How it is done: as §2, §3, §4, §5
A further assay has as its system BxPC-3. Kind of assay: Cytotoxic activity in vitro, SRB. The format is cell-based, human. How it is done: as §1
For another assay, the system named is Capan-2. The experiment in a line: Cytotoxic activity in vitro, SRB. The class given is cell-based, human. How it is done: as §1
Another assay deals with BXPC 3. Kind of assay: Anti-neoplasmic activity against xenograft in hairless mice. The class given is in vivo. Particulars: series 25, i.p., single 10 mg/kg, total 80 mg/kg, day 32. How it is done: as §2, §3, §4, §5
The test system of the next assay is Mia Pa Ca 2. The assay is described as above. Conditions: series 28, i.v., single 5 mg/kg, total 28 mg/kg, day 33. The format is in vivo. How it is done:
as §2, §3, §4, §5

With `Cc1ccc([N+](=O)[O-])c2c(NCCCN3CCN(CCCNc4ccc(C)c5[nH]c6ccccc6c(=O)c45)CC3)c3ccccc3nc12` [C-2017, 1-[3-(4-methyl-9(10H)-acridono-1-yl)aminopropyl]-1-[3′-(4′-methyl-1′-nitroacridin-1-yl)-aminopropyl]piperazine], the EC50 (in general, the concentration giving half of the maximal effect) is 46 nM with DU-145; 40 nM in the assay with H-460; 47 nM with HCT-116; 61 nM with HT-29; 48 nM with MDA-MB-231; 67 nM in the assay on MiaPaCa-2. Besides, the “TGI [%] [100 − (ΔVT/ΔVC × 100]” value in the assay on DU 145 was 25%; in the assay with H 460 (series 5, i.p., single 5 mg/kg, total 30 mg/kg, day 14) it was 6%; in the assay on PANC 1 (series 31, i.v., single 15 mg/kg, total 120 mg/kg, day 51), 75%.

As for `CN(CCCNc1c2ccccc2nc2cccc([N+](=O)[O-])c12)CCCNc1ccc([N+](=O)[O-])c2[nH]c3ccccc3c(=O)c12` [C-2026, 9-{N-[(4-nitro-9(10H)acridono-1-yl)aminopropyl]-N-methylaminopropylamino}-1′-nitroacridine], the EC50 in the assay with AsPC-1 was 66 nM; in the assay with DU-145, 24 nM; in the assay with H-460, 10 nM; in the assay with HCT-116 it was 260 nM; with HT-29 it was 67 nM; with MCF-7 it was 695 nM. The EC50 in the assay on MDA-MB-231 was 28 nM; in the assay with MiaPaCa-2, 103 nM; in the assay with PANC-1, 28 nM; in the assay on PC-3 it was 51 nM; in the assay on UM-UC-3 it was 29 nM. For the same compound, the “TGI [%] [100 − (ΔVT/ΔVC × 100]” value in the assay on H 460 (series 16, i.v., single 1 mg/kg, total 5 mg/kg, day 15) is recorded as 14%; in the assay on H 460 (series 16, i.v., single 4 mg/kg, total 16 mg/kg, day 14, *at least half of animals did not survive), 35* %.

As for `Cc1ccc([N+](=O)[O-])c2c(NCCCN(C)CCCNc3ccc([N+](=O)[O-])c4[nH]c5ccccc5c(=O)c34)c3ccccc3nc12` [C-2029, 9-{N-[(4-nitro-9(10H)acridono-1-yl)aminopropyl]-N-methylaminopropylamino}-4′-methyl-1′-nitroacridine], the EC50 in the assay on DU-145 was determined as 44 nM; in the assay on H-460, 55 nM; in the assay with HCT-116, 74 nM; in the assay with HT-29 it was 230 nM; in the assay with PANC-1, 110 nM; with UM-UC-3, 54 nM. Further, the “TGI [%] [100 − (ΔVT/ΔVC × 100]” value in the assay on HCT 116 (single 20 mg/kg, total 100 mg/kg) is reported as 52%.

Take `Cc1ccc([N+](=O)[O-])c2c(NCCCN3CCN(CCCNc4ccc([N+](=O)[O-])c5[nH]c6ccccc6c(=O)c45)CC3)c3ccccc3nc12` [C-2030, 1-[3-(4-nitro-9(10H)-acridono-1-yl)aminopropyl]-4-[3′-(4′-methyl-1′-nitroacridin-1-yl)-aminopropyl]piperazine]: the EC50 was determined as 41 nM with DU-145; 40 nM in the assay with H-460; 83 nM in the assay on HCT-116; 108 nM in the assay on MiaPaCa-2; 130 nM in the assay with PANC-1; 362 nM with PC-3. Also, the EC50 with UM-UC-3 worked out at 63 nM. Further, the “TGI [%] [100 − (ΔVT/ΔVC × 100]” value in the assay on H 460 (series 6, i.v., single 10 mg/kg, total 60 mg/kg, day 17, *at least half of animals did not survive) is given as 24* %.

Take `O=c1c2ccccc2[nH]c2c([N+](=O)[O-])ccc(NCCNCCNCCNc3c4ccccc4nc4cccc([N+](=O)[O-])c34)c12` [C-2033, 9-[N-(4-nitro-9(10H)acridono-1-yl)-aminoethylaminoethylamino-ethylamino]-1′-nitroacridine]: the EC50 in the assay on DU-145 was determined as 10 nM; in the assay on HCT-116, 19 nM; in the assay on MCF-7, 72 nM; with MDA-MB-231, 32 nM; in the assay on MiaPaCa-2, 48 nM; with PANC-1 it was 38 nM. For the same compound, the EC50 came to 32 nM in the assay on PC-3 and 15 nM in the assay with UM-UC-3. Moreover, the “TGI [%] [100 − (ΔVT/ΔVC × 100]” value with HCT 116 (single 3 mg/kg, total 21 mg/kg) came to 37%.

Consider `O=c1c2ccccc2n2cnc3ccc(NCCNCCNCCNc4c5ccccc5nc5cccc([N+](=O)[O-])c45)c1c32` [C-2037], for which the EC50 in the assay with AsPC-1 was 86 nM; in the assay with BxPC-3, 138 nM; in the assay with Capan-2, 44 nM; with DU-145, 40 nM; with HCT-116, 102 nM; in the assay on MCF-7, 82 nM. The EC50 was 27 nM with MDA-MB-231, 64 nM in the assay on MiaPaCa-2 and 37 nM with PANC-1. Also, in the assay on PANC 1 (series 17, i.v., single 4 mg/kg, total 16 mg/kg, day 39), the “TGI [%] [100 − (ΔVT/ΔVC × 100]” value was found to be 60%.

With `CN(CCCNc1c2ccccc2nc2cccc([N+](=O)[O-])c12)CCCNc1ccc2ncn3c4ccc(O)cc4c(=O)c1c23` [C-2042, 9-{N-[(8-hydroxyimidazo[4,5,1-de]-acridin-6-on-5-yl)aminopropyl]-N-methylaminopropylamino}-1′-nitroacridine], the EC50 in the assay with AsPC-1 was 82 nM; in the assay with BxPC-3 it was 81 nM; in the assay on Capan-2, 29 nM; with DU-145, 21 nM; in the assay with HCT-116, 18 nM; in the assay on MCF-7 it was 49 nM. The EC50 in the assay on MDA-MB-231 amounted to 18 nM; with MiaPaCa-2, 47 nM; in the assay with PANC-1 it was 55 nM. Also, the “TGI [%] [100 − (ΔVT/ΔVC × 100]” value in the assay on PANC 1 (series 17, i.v., single 4 mg/kg, total 20 mg/kg, day 39, *at least half of animals did not survive) is on record as 33* %.

Take `Cc1ccc([N+](=O)[O-])c2c(NCCCN(C)CCCNc3ccc4ncn5c6ccc(O)cc6c(=O)c3c45)c3ccccc3nc12` [C-2045, 9-{N-[(8-hydroxyimidazo[4,5,1-de]-acridin-6-on-5-yl)aminopropyl]-N-methylaminopropylamino}-4′-methyl-1′-nitroacridine]: the EC50 with AsPC-1 was 152 nM; in the assay with BxPC-3, 169 nM; in the assay with Capan-2, 52 nM; in the assay on DU-145, 59 nM; with HCT-116 it was 40 nM; in the assay with MDA-MB-231 it was 52 nM. Besides, the EC50 in the assay on MiaPaCa-2 amounted to 59 nM; in the assay on PANC-1, 216 nM. In addition, the “TGI [%] [100 − (ΔVT/ΔVC × 100]” value is recorded as 77% with BXPC 3; 55% in the assay with Mia Pa Ca 2; 67% in the assay with PANC 1 (series 20, i.v., single 10 mg/kg, total 40 mg/kg, day 32); 82% in the assay with PANC 1 (series 24, i.v., single 2 mg/kg, total 16 mg/kg, day 44); 64% with PANC 1 (series 26, i.v., single 10 mg/kg, total 80 mg/kg, day 56); 25% in the assay with PANC 1 (series 29, i.v., single 5 mg/kg, total 25 mg/kg, day 36).
